Results published in patent US10537525B2, “Methods and materials for delivering agents to liver tissue” (Mayo Foundation for Medical Education and Research, priority 2015, dated 2020).

Assays:
[1] = Endoscopic ultrasound-guided portal vein injection of irinotecan loaded microbeads vs jugular vein irinotecan: plasma and tissue concentrations (LC/MS); format: in vivo, pigs; details: control: unloaded irinotecan 100 mg into jugular vein; for concentration at 1 h: pig, intravenous
Experimental: Irinotecan and SN-38 (active metabolite) concentrations were determined using LC/MS.

in vivo [2] = details: male, pig, intravenous, 50 mg
Experimental: The aim was to determine 7-day safety, toxicity, and drug levels in the survival porcine model of endoscopic ultrasound-guided injections using irinotecan and doxorubicin loaded onto microbeads, as compared with systemic injection.
Sixteen anesthetized 35 kg male pigs were treated with 50 mg of either irinotecan (n=8) or doxorubicin (n=8). […] Within each drug group, half (n=4) were treated with endoscopic ultrasound-guided injections using 75-150 micron LC Beads (Biocompatibles) or endoscopic ultrasound-guided injection of drug not loaded onto microbeads into the IVC, using 22g endoscopic ultrasound needles via a transgastric approach. Each animal received only one drug by one route. Animals were observed twice daily for 7 days for clinical signs of toxicity. Whole blood for cell counts and plasma chemistries were obtained at baseline and at 7 days. […] 7 day drug levels were measured by LC-mass spectometry on plasma, bone marrow, liver and heart.

in vivo [3] = details: pig, intravenous, 100 mg
Experimental: (§1) The following was performed to assess the use of endoscopic ultrasound-guided portal vein injection of doxorubicin loaded microbeads to achieve increased intrahepatic concentrations of doxorubicin while decreasing systemic doxorubicin exposure.
(§2) Endoscopic ultrasound-guided portal vein injections were administered to 8 anesthetized 35 kg pigs transgastrically using a linear array echoendoscope and a 22 gauge fine-needle aspiration needle. Briefly, an Olympus linear array echoendoscope was inserted perorally to the stomach. The portal vein was identified by location, appearance, and pulse-wave Dopper signature. A 22 gauge fine-needle aspiration needle (Cook Medical) was advanced transgastrically into the portal vein.
(§3) In 4 animals, doxorubicin (100 mg) loaded onto 75-150 micron LC Beads® (Biocompatibles UK LTD) was injected. In 4 animals, saline was injected into the portal vein, and unloaded doxorubicin (100 mg) was injected into the jugular vein. Plasma was collected at baseline and every 15 minutes for one hour. At 1 hour, laparotomy was performed, and liver and heart samples were obtained and frozen. Bone marrow aspirates were obtained at one hour from the right anterior tibia. Doxorubicin concentrations were determined using LC/MS.

[4] = control: unloaded doxorubicin 100 mg into jugular vein; plasma every 15 min for one hour
Experimental: as §1, §2, §3

[5] = 50 mg, either group (microbeads portal vein or unloaded drug into IVC)

Row | irinotecan level at 7 days (50 mg, any samples (plasma, bone marrow, liver, heart), microbeads portal vein or unloaded drug into IVC) | SN-38 (active metabolite of irinotecan) level at 7 days (irinotecan 50 mg, any samples (plasma, bone marrow, liver, heart), microbeads portal vein or unloaded drug into IVC) | Irinotecan level, Peak Plasma ([1]; plasma every 15 min for one hour) [ng/mL] | concentration at 1 h ([1]; bone marrow, at one hour, read-out: Irinotecan level, Bone Marrow) [ng/mL] | concentration at 1 h ([1]; skeletal muscle at 1 hour, read-out: Irinotecan level, Muscle) [ng/g] | concentration at 1 h ([1]; liver, at 1 hour, read-out: Irinotecan level, Liver) [ng/g] | doxorubicin level in bone marrow at 7 days [5] | doxorubicin level in plasma at 7 days [5] | concentration at 7 days (in vivo [2]; heart) [ng/g] | concentration at 7 days (in vivo [2]; liver) [ng/g] | concentration at 1 h (in vivo [3]; bone marrow) [ng/mL] | concentration at 1 h (in vivo [3]; heart) [ng/g] | concentration at 1 h (in vivo [3]; liver) [ng/g] | Doxorubicin level, Peak Plasma [4] [ng/mL] | Compound
1 | no detectable | no detectable | 2762 | 1700 | 1060 | 3690 | – | – | – | – | – | – | – | – | CCc1c2c(nc3ccc(OC(=O)N4CCC(N5CCCCC5)CC4)cc13)-c1cc3c(c(=O)n1C2)COC(=O)[C@]3(O)CC [Irinotecan, (S)-4,11-diethyl-3,4,12,14-tetrahydro-4-hydroxy-3,14-dioxo1H-pyrano[3′,4′:6,7]-indolizino[1,2-b]quinolin-9-yl-[1,4′bipiperidine]-1′-carboxylate]
2 | – | – | – | – | – | – | no drug was detected | no drug was detected | 138 | 151 | 25 | 4800 | 6930 | 2041 | COc1cccc2c1C(=O)c1c(O)c3c(c(O)c1C2=O)C[C@@](O)(C(=O)CO)C[C@@H]3O[C@H]1C[C@H](N)[C@H](O)[C@H](C)O1 [doxorubicin, (7S,9S)-7-[(2R,4S,5S,6S)-4-amino-5-hydroxy-6-methyloxan-2-yl]oxy-6,9,11-trihydroxy-9-(2-hydroxyacetyl)-4-methoxy-8,10-dihydro-7H-tetracene-5,12-dione]
